Assay results as given in ChEMBL document CHEMBL2040789, “Optimization of the Central Core of Indolinone-Acetic Acid-Based CRTH2 (DP2) Receptor Antagonists” (ACS Med Chem Lett, 2011).
≈ marks a conversion by molar mass, not a printed value. Blank lines part the entries; values can stand above or below the compound they belong to.

Experiments:
[1] = molecular target: T1, Prostaglandin D2 receptor 2 (Homo sapiens, UniProt Q9Y5Y4); assay: Displacement of [3H]PGD2 from human CRTH2 receptor expressed in CHO cells after 90 mins by scintillation proximity assay; assay type: cell-based
T1 sequence (Q9Y5Y4 whole entry): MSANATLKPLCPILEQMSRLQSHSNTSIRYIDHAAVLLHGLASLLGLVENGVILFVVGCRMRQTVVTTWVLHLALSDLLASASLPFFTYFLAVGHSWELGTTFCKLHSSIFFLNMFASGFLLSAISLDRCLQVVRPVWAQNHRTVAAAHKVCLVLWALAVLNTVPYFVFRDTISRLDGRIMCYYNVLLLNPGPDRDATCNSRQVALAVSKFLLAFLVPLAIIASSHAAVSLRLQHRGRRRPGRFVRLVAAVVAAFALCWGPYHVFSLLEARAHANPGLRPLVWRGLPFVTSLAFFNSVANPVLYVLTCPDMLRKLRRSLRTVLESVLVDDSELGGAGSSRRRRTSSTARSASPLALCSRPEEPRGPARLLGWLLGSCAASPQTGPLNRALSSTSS

[2] = Apparent permeability of the compound in human Caco2 cells; assay type: ADME, cell-based; conditions: Caco-2
[3] = Half life in human plasma; assay type: ADME, cell-free
[4] = Solubility of the compound in simulated gastric fluid; assay type: physicochemical
[5] = Oral bioavailability in C57BL/6 mouse at 5 mg/kg; assay type: ADME, organism-based; conditions: in vivo
[6] = Drug degradation at pH 9 after 24 hrs; assay type: physicochemical; conditions: buffer, read-out: Drug degradation
[7] = Drug degradation at pH 8 after 24 hrs; assay type: physicochemical; conditions: buffer, read-out: Drug degradation
[8] = Clearance in C57BL/6 mouse at 1 mg/kg, iv and 5 mg/kg, po; assay type: ADME, organism-based; conditions: in vivo
[9] = Drug degradation in human plasma after 24 hrs; assay type: ADME, cell-free; conditions: read-out: Drug degradation
[10] = Oral bioavailability in monkey; assay type: ADME, organism-based, Macaca mulatta; conditions: rhesus monkey, in vivo
[11] = Solubility of the compound in fasted state simulated intestinal fluid
[12] = Clearance in Sprague-Dawley rat at 1 mg/kg, iv and 5 mg/kg, po; assay type: ADME, organism-based; conditions: in vivo
[13] = Oral bioavailability in dog; assay type: ADME, organism-based, Canis lupus familiaris; conditions: in vivo
[14] = Fraction unbound in human plasma; assay type: ADME, cell-free
[15] = Oral bioavailability in Sprague-Dawley rat at 5 mg/kg; assay type: ADME, organism-based; conditions: in vivo
Liver microsomes = assay: Clearance in human liver microsomes; assay type: ADME, Microsome
Hepatocyte [16] = assay: Clearance in human hepatocytes; assay type: ADME, cell-based
[17] = Bioavailability in Sprague-Dawley rat administered by portal vein; assay type: ADME, organism-based; conditions: in vivo
[18] = AUC in C57BL/6 mouse at 5 mg/kg, po; assay type: ADME, organism-based; parameters: dose 5 mg/kg, route oral; conditions: plasma
[19] = Fraction unbound in mouse plasma; assay type: ADME, cell-free
[20] = Oral bioavailability in guinea pig; assay type: ADME, organism-based, Cavia porcellus; conditions: in vivo
[21] = Fraction unbound in rat plasma; assay type: ADME, cell-free
[22] = Bioavailability in Sprague-Dawley rat after intraduodenal administration; assay type: ADME, organism-based; conditions: in vivo
Cytochrome P450 2C8 = molecular target: T2, Cytochrome P450 2C8 (Homo sapiens, UniProt P10632); assay: Inhibition of CYP2C8; assay type: ADME
T2 sequence (P10632 whole entry): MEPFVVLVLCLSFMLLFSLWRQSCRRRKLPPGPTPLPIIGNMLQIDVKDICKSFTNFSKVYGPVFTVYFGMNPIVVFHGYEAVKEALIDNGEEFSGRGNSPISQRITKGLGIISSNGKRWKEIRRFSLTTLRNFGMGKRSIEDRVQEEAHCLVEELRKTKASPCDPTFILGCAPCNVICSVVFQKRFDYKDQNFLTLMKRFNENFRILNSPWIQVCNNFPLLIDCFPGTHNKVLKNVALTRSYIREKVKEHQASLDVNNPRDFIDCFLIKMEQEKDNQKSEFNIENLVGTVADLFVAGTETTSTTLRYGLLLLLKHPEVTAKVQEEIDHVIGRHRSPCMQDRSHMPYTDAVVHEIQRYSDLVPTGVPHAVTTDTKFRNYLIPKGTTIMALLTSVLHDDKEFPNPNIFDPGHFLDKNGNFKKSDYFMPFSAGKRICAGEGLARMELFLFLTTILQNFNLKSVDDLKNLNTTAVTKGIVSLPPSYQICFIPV

Cytochrome P450 2D6 = Cytochrome P450 2D6 (Homo sapiens, UniProt P10635); assay: Inhibition of CYP2D6; assay type: ADME
Cytochrome P450 2D6, sequence (P10635 whole entry): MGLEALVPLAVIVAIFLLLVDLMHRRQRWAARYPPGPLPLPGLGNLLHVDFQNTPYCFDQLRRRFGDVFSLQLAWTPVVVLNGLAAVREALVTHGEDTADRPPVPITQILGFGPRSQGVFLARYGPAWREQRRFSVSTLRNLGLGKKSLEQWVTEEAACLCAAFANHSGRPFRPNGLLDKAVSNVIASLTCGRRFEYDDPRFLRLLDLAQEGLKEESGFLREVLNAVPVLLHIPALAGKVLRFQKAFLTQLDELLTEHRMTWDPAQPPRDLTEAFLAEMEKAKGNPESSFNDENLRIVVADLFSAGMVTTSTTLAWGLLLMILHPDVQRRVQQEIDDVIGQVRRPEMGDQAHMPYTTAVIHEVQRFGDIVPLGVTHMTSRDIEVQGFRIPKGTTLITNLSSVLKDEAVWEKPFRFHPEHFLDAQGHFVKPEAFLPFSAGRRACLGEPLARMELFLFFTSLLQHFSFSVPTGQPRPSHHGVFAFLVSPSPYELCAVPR

[23] = molecular target: Prostaglandin E2 receptor EP2 subtype (Homo sapiens) (UniProt P43116); assay: Inhibition of EP2 at 10 uM
Prostaglandin E2 receptor EP2 subtype (Homo sapiens), sequence (P43116 whole entry): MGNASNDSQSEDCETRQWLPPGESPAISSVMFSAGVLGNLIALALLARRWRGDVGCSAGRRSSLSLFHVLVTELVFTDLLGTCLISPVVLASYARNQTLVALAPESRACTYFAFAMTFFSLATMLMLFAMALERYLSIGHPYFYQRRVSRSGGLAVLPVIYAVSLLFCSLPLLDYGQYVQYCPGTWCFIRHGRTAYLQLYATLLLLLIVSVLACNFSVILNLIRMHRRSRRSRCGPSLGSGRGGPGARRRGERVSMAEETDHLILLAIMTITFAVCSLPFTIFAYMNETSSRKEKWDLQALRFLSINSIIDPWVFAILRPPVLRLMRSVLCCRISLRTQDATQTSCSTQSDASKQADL

[24] = Intrinsic clearance in rat liver microsomes; assay type: ADME, Microsome; conditions: read-out: CLH
[25] = molecular target: Aldo-keto reductase family 1 member B1 (Homo sapiens, UniProt P15121); assay: Inhibition of aldose reductase
[26] = molecular target: T3, Prostaglandin D2 receptor (Homo sapiens) (UniProt Q13258); assay: Inhibition of DP1 expressed in human HEK cells at 20 uM; assay type: cell-based; conditions: HEK293
T3 sequence (whole entry): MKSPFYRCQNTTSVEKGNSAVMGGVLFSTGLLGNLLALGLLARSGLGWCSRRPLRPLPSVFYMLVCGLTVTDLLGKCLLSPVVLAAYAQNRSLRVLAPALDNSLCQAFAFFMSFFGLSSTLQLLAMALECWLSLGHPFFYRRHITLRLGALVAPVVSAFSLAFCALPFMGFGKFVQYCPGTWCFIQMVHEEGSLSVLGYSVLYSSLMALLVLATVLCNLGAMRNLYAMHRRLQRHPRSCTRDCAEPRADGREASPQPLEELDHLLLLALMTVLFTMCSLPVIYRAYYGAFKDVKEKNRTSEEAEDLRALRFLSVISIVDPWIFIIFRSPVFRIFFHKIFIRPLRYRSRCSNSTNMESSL

Cytochrome P450 1A2 = molecular target: T4, Cytochrome P450 1A2 (Homo sapiens, UniProt P05177); assay: Inhibition of CYP1A2; assay type: ADME
T4 sequence (P05177 whole entry): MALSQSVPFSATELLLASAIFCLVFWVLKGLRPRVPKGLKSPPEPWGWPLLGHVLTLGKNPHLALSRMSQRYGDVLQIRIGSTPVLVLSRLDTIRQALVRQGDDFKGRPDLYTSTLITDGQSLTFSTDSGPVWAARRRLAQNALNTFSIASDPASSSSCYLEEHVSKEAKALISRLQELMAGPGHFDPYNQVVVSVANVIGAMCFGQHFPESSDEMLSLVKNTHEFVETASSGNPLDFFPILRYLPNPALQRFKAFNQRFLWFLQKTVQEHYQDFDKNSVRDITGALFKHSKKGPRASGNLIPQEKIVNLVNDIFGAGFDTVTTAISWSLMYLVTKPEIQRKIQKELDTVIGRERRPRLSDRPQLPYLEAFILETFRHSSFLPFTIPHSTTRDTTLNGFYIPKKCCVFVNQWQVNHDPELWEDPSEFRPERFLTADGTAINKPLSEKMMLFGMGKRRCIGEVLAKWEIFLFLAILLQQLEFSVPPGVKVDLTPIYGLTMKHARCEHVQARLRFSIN

[27] = molecular target: Voltage-gated inwardly rectifying potassium channel KCNH2 (Homo sapiens, UniProt Q12809); assay: Inhibition of human Erg
Voltage-gated inwardly rectifying potassium channel KCNH2, sequence (Q12809 whole entry): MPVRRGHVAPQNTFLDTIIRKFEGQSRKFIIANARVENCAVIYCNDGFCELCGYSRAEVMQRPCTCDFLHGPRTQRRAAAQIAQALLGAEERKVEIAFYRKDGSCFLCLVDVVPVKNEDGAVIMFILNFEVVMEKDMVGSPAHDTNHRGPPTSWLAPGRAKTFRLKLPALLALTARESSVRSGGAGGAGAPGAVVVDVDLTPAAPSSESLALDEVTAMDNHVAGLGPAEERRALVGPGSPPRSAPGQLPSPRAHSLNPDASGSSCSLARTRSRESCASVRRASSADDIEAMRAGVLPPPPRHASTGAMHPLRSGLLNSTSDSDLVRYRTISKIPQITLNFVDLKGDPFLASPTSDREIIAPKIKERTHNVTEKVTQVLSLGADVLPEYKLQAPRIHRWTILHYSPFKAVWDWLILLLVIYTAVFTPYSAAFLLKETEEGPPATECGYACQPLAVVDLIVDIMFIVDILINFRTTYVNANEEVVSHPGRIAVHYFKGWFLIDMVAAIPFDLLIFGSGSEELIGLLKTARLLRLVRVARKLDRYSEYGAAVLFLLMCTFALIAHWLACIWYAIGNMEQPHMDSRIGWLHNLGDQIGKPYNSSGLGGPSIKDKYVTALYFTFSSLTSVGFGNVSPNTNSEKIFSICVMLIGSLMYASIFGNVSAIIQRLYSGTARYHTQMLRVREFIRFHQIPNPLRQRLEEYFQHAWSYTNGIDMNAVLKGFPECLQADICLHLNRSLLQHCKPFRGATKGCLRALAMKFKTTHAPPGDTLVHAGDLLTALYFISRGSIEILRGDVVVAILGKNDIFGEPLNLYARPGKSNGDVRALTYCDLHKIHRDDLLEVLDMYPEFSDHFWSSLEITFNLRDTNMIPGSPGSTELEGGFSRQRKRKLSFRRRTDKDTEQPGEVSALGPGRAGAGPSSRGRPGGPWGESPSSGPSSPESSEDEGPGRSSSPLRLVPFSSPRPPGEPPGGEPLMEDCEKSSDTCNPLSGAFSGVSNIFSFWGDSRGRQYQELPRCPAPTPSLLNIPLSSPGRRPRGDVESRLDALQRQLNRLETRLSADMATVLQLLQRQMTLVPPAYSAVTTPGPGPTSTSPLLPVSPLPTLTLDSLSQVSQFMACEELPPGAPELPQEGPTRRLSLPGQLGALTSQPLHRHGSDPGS

Cytochrome P450 2C9 = Cytochrome P450 2C9 (Homo sapiens, UniProt P11712); assay: Inhibition of CYP2C9; assay type: ADME
Cytochrome P450 2C9, sequence (P11712 whole entry): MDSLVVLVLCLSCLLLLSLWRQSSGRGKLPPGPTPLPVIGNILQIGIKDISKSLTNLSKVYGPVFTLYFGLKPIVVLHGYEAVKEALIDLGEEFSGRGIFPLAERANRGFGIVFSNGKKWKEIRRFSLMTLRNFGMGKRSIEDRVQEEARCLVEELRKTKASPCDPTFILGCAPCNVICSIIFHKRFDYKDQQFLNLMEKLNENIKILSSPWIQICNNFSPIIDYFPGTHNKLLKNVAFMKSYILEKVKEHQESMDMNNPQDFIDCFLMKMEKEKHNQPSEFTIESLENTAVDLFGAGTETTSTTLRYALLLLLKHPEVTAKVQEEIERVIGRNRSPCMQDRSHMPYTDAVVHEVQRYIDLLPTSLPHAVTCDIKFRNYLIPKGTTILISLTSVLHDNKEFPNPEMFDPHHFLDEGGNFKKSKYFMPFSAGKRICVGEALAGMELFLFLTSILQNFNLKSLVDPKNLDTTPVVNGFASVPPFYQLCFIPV

Cytochrome P450 3A4 = Cytochrome P450 3A4 (Homo sapiens, UniProt P08684); assay: Inhibition of CYP3A4; assay type: ADME
Cytochrome P450 3A4, sequence (P08684 whole entry): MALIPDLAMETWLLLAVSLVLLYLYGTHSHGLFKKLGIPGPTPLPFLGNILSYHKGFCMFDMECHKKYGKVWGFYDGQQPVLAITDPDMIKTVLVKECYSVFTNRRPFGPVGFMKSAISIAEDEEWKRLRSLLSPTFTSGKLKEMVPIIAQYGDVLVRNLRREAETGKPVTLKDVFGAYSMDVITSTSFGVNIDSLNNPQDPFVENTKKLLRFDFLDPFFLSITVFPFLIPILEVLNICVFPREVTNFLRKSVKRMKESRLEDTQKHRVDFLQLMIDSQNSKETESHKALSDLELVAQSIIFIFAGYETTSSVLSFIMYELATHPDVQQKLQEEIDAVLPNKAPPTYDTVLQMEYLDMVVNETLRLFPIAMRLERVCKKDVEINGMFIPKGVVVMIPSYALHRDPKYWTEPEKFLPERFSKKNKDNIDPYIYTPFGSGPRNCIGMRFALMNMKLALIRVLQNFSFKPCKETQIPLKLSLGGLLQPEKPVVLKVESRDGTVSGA

[28] = molecular target: T3, Prostaglandin D2 receptor (Homo sapiens); assay: Antagonist activity at DP1 receptor expressed in HEK cells assessed as inhibition of PGD2-induced cAMP production at 20 uM; assay type: functional, cell-based; conditions: HEK293
Cytochrome P450 2C19 = Cytochrome P450 2C19 (Homo sapiens, UniProt P33261); assay: Inhibition of CYP2C19; assay type: ADME
Cytochrome P450 2C19, sequence (P33261 whole entry): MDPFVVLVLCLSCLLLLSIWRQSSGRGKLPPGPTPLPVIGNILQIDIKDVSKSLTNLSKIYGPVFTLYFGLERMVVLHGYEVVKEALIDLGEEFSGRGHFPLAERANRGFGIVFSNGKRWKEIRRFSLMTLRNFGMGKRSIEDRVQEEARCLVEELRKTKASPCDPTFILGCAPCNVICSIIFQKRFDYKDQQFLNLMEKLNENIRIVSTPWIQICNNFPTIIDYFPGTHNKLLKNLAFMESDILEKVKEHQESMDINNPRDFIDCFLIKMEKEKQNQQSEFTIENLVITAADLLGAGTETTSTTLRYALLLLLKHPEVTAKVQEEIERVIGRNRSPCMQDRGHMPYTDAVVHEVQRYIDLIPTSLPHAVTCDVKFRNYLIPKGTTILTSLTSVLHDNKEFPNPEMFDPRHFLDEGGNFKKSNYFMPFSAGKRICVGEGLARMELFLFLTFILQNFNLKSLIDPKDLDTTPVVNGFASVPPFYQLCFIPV

[29] = molecular target: T5, Prostaglandin E2 receptor EP1 subtype (Homo sapiens) (UniProt P34995); assay: Inhibition of EP1 at 10 uM
T5 sequence (whole entry): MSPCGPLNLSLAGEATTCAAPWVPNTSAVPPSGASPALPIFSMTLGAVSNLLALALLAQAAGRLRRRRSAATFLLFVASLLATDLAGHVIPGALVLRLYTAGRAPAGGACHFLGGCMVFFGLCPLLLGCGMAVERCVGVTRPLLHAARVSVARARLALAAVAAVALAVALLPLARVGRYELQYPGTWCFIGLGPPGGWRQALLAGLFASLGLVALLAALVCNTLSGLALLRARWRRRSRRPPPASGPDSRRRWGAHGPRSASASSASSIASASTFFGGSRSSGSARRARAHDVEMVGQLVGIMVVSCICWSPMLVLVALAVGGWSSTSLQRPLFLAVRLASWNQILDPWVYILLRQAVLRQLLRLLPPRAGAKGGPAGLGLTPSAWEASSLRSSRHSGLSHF

Mus musculus = assay: Antiinflammatory activity in ovalbumin-sensitised Balb/c mouse assessed as reduction in ovalbumin-induced eosinophil count in bronchoalveolar lavage fluid at 30 mg/kg, po administered 1 hr before and 7 hrs after ovalbumin challenge measured after 8 hrs by haemocytometeric analysis; assay type: functional; conditions: Lung
Hepatocyte [30] = assay: Cytotoxicity against primary rat hepatocytes up to 750 uM; assay type: cell-based
[31] = Intrinsic clearance in human liver microsomes; assay type: ADME, Microsome; conditions: read-out: CLH
HepG2 = assay: Cytotoxicity against human HepG2 cells up to 750 uM; assay type: cell-based

SMILES: CN1C(=O)N(Cc2cc(F)ccc2F)C(=O)C12C(=O)N(CC(=O)O)c1ccc(Cl)cc12 (stereo not drawn)
Ki [1]: 390 nM

SMILES: CCN1C(=O)N(Cc2cc(Cl)ccc2F)C(=O)[C@]12C(=O)N(CC(=O)O)c1ccc(Cl)cc12
Ki [1]: 260 nM

SMILES: O=C(O)CN1C(=O)C2(NC(=O)N(Cc3cc(Cl)ccc3F)C2=O)c2cc(Cl)ccc21 (stereo not drawn)
Ki [1]: 28 nM

SMILES: Cc1onc(-c2ccccc2)c1CN1C(=O)NC2(C1=O)C(=O)N(CC(=O)O)c1ccc(Cl)cc12 (stereo not drawn)
Ki [1]: 7 nM

SMILES: CN1C(=O)N(Cc2cc(Cl)ccc2F)C(=O)[C@]12C(=O)N(CC(=O)O)c1ccc(Cl)cc12
Ki [1]: 35 nM | IC50 (Cytochrome P450 2C8): > 10000 nM | bioavailability [5]: 39% | IC50 (Cytochrome P450 2D6): > 10000 nM | inhibition [23]: 34% | clearance [8]: 13.3 mL/min/kg | microsomal CLint [24]: < 10 µL/min/mg | IC50 [25]: 150 nM | inhibition [26]: < 30% | IC50 (Cytochrome P450 1A2): > 10000 nM | inhibition (INH) [27]: Not Active | IC50 (Cytochrome P450 2C9): > 10000 nM | IC50 (Cytochrome P450 3A4): > 10000 nM | Papp [2]: 0.6 ×10⁻⁶ cm/s | inhibition [28]: < 30% | IC50 (Cytochrome P450 2C19): > 10000 nM | inhibition [29]: 32% | fraction unbound [14]: 0.02 | bioavailability [15]: 37% | inhibition in vivo at 30 mg/kg (Mus musculus): 67% | Activity (Hepatocyte [30]): Non-toxic | AUC [18]: 2400 ng·h/mL | fraction unbound [19]: 0.05 | microsomal CLint [31]: < 10 µL/min/mg | fraction unbound [21]: 0.019 | Activity (HepG2): Non-toxic

Continued, values first:

Ki [1]: 110 nM
SMILES: Cc1onc(-c2ccccc2)c1CN1C(=O)N(C)C2(C1=O)C(=O)N(CC(=O)O)c1ccc(Cl)cc12 (stereo not drawn)

Papp [2]: 26 ×10⁻⁶ cm/s | half-life [3]: 1 h
SMILES: O=C(O)CN1C(=O)[C@@]2(CC(=O)N(Cc3cc(Cl)ccc3F)C2=O)c2cc(Cl)ccc21

solubility [4]: 10 µg/mL (≈ 22.1 µM) | Ki [1]: 15 nM | bioavailability [5]: 9% | degraded at 24 h [6]: 45% | degraded at 24 h [7]: < 5% | clearance [8]: 13.3 mL/min/kg | Papp [2]: 0.2 ×10⁻⁶ cm/s | metabolised at 24 h [9]: < 15% | bioavailability [10]: 10% | solubility [11]: 1500 µg/mL (≈ 3320 µM) | clearance [12]: 2.5 mL/min/kg | bioavailability [13]: 71% | fraction unbound [14]: 0.023 | bioavailability [15]: 6% | CLH (Liver microsomes): < 1 µg/mL/h | CLH (Hepatocyte [16]): 2 µg/mL/h | bioavailability [17]: 90% | AUC [18]: 580 ng·h/mL | fraction unbound [19]: 0.063 | bioavailability [20]: 7% | fraction unbound [21]: 0.03 | bioavailability [22]: 11%
SMILES: O=C(O)CN1C(=O)[C@@]2(NC(=O)N(Cc3cc(Cl)ccc3F)C2=O)c2cc(Cl)ccc21

Ki [1]: 16 nM | bioavailability [5]: < 5% | clearance [8]: 60.5 mL/min/kg
SMILES: CN1C(=O)N(Cc2csc(-c3ccccc3)n2)C(=O)C12C(=O)N(CC(=O)O)c1ccc(Cl)cc12 (stereo not drawn)
